Assay results reported in patent US9440941B2, “Substituted chroman-6-yloxy-cycloalkanes and their use as pharmaceuticals” (SANOFI, priority 2013, dated 2016).

Target: T1, human NCX1 (Homo sapiens, UniProt P32418)
T1 construct: expressed in transfected cells
Assay: Inhibition of Ca2+ influx into cells (NCX1 reverse mode), FLIPR Fluo-4 assay
Type: cell-based
Conditions: inhibition of NCX1 in reverse mode (Ca2+ influx into cells); read-out: NCX1rv IC50
Method in brief: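 CHO cells stably expressing human NCX1, loaded with Fluo-4 AM, preincubated with compound 45 min at 16 °C in pH 7.4 buffer (3.5 mM CaCl2). Reverse mode triggered by 20 µM gramicidin (final); Fluo-4 fluorescence read at 520 nm every 2 s. IC50 from percentage inhibition of max-minus-min fluorescence.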

Compound | IC50
Cc1ccccc1C1CCc2cc(OC3CCC(NCc4c(C)nn(C)c4C)CC3)ccc2O1 (stereo not shown) [Example 177, 4-(2-o-Tolyl-chroman-6-yloxy)-N-(1,3,5-trimethylpyrazol-4-ylmethyl)-cyclohexylamine] | 3200 nM
O=C(N[C@H]1CC[C@H](Oc2ccc3c(c2)CCC(c2ccccc2)O3)CC1)[C@@H]1CCCN1 (stereo partly drawn) [Example 180, (S)—N-[trans-4-(2-Phenyl-chroman-6-yloxy)-cyclohexyl]-pyrrolidine-2-carboxamide] | 800 nM
Cc1ccccc1[C@@H]1CCc2cc(O[C@H]3CC[C@H](C(=O)NCCOP(=O)([O-])[O-])CC3)ccc2O1.[Na+].[Na+] [Example 303, Phosphoric acid mono-(2-{[trans-4-((S)-2-o-tolyl-chroman-6-yloxy)-cyclohexanecarbonyl]-amino}-ethyl) ester disodium salt] | 100 nM

More lines, in order of falling IC50, values ahead:

IC50 | Compound
600 nM | Cc1ccccc1C1CCc2cc(O[C@H]3CC[C@H](N)CC3)ccc2O1.Cl (stereo partly drawn) [Example 156, trans-4-(2-o-Tolyl-chroman-6-yloxy)-cyclohexylamine]
400 nM | Cc1ccccc1C1CCc2cc(OC3CCC(C(=O)NCc4ccno4)CC3)ccc2O1 (stereo not shown) [Example 158, N-(Isoxazol-5-ylmethyl)-4-(2-o-tolyl-chroman-6-yloxy)-cyclohexanecarboxamide]
200 nM | NCC(=O)N[C@H]1CC[C@H](Oc2ccc3c(c2)CC[C@@H](c2ccccc2)O3)CC1 [Example 159, 2-Amino-N-[trans-4-((S)-2-phenyl-chroman-6-yloxy)-cyclohexyl]-acetamide]
150 nM | Cc1ccccc1[C@@H]1CCc2cc(O[C@H]3CC[C@H](C(=O)NCCO)CC3)ccc2O1 [Example 268, trans-4-((S)-2-o-tolyl-chroman-6-yloxy)-cyclohexanecarboxylic acid (2-hydroxy-ethyl)-amide]
